Reference: patent US20240415804A1, “METHOD OF TREATING PANCREATIC CANCER” (University of South Florida, priority 2022, published 2024)

Columns and labels:
SHIP-1 [1] = test: SHIP-1 gene and protein expression in tumors of HPC mice; type: in vivo, mouse; details: API 25 mg/kg IP 3 times per week for 3-4 weeks, vs vehicle
Description: Earlier studies have shown the anti-tumor activity of API in pre-clinical experimental models of cancer^41, 62-68. The inventors have reported that API increased survival and reduced tumor growth in a heterotopic (H) mouse model of PC (HPC)^55. To investigate if API targets miR-155 and regulates SHIP-1 in the TME of an HPC mouse model, HPC mice were treated with API at a dose of 25 mg/kg (IP) 3 times per week for 3-4 weeks.
All female C57BL/6 mice (6-8 weeks of age) described in this study were purchased from Envigo (Indianapolis, IN, USA) and were acclimatize for one week in a pathogen-free animal facility (University of South Florida (USF) vivarium) before injections with PC cells. To generate heterotopic pancreatic cancer (HPC) models, mice were subcutaneously injected with 1.5×10^5 murine Panc02 (HPC mice) or 5×10^6 murine UN-KC-6141 cells (KC-HPC mice), in sterile 1× phosphate buffer saline (PBS), in the lower ventral abdomen, while control (CTRL) mice received sterile 1×PBS. […]
(§1) Isolation of total RNA from digested pancreatic tumors and BM cells was performed using a RNeasy Mini Kit (Qiagen), according to the manufacturer's instructions. RT-PCR of quantified and normalized total RNA was performed using a High-Capacity cDNA RT Kit with an RNase Inhibitor (Applied Biosystems), according to the manufacturer's instructions. […]

SHIP-1 [2] = test: SHIP-1 gene and protein expression in OPC mice; type: in vivo, mouse; details: API 25 mg/kg IP 3 times per week for 2-3 weeks, vs OPC mice
Description: The inventors reported recently that API reduced tumor growth in an orthotopic (O) mouse model of PC (OPC)^12, which is a more clinically relevant model^69. To investigate if API targets miR-155 and regulates SHIP-1 expression in the BM and tumor of an OPC mouse model, OPC mice were treated with API at a dose of 25 mg/kg (IP) 3 times per week for 2-3 weeks.
To generate orthotopic pancreatic models (OPC), anesthetized (1.5-3% isoflurane) mice were injected in the neck of the pancreas, via laparotomy^59, with sterile PBS (CTRL) or 1.25×10^4 Panc02 cells (OPC), in sterile 1×PBS. […]
as §1
Single-cell suspensions of BM, digested pancreatic tumors cells and UN-KC-6141 cells treated with API (40 μM) were lysed with radioimmunoprecipitation buffer (Sigma-Aldrich), quantified with a BCA Protein Assay kit (Thermo Fisher Scientific, Waltham, MA, USA), resolved by SDS-PAGE (Thermo Fisher Scientific) and transferred onto a nitrocellulose membrane as previously described. […]

iNOS = test: Western blot of iNOS protein in tumors of KC-HPC mice; type: in vivo, mouse; details: KC-HPC-API vs KC-HPC mice
Description: The inventors then assessed the expression of CD40 (a T cell co-stimulation marker) on M1 TAM (gated as MHC-II^+ and CD206) within the tumor from KC-HPC vs. KC-HPC-API mice. […] Single-cell suspensions of BM, digested pancreatic tumors cells and UN-KC-6141 cells treated with API (40 μM) were lysed with radioimmunoprecipitation buffer (Sigma-Aldrich), quantified with a BCA Protein Assay kit (Thermo Fisher Scientific, Waltham, MA, USA), resolved by SDS-PAGE (Thermo Fisher Scientific) and transferred onto a nitrocellulose membrane as previously described. Membranes were probed with either anti-SHIP-1 (Santa Cruz Biotechnology, Dallas, TX, USA), anti-iNOS (Cell Signaling Technology) or anti-Bcl-2 (Cell Signaling Technology, Danvers, MA, USA), all at a dilution of 1:1000. All blots were re-probed with a housekeeping protein, HRP-conjugated anti-β-actin (Sigma-Aldrich), at a dilution of 1:20,000. Membranes were then probed with the respective secondary anti-mouse or rabbit IgG HRP-conjugated antibodies (1:1000) of SHIP-1 and iNOS. Detection of SHIP-1, iNOS and β-actin proteins was performed using Super Signal West Pico or Femto Chemiluminescent Substrates (Thermo Fisher Scientific) and then imaged on a Bio-Rad Chemi Doc XRS Imaging System. Normalized densitometric ratios (divided by β-actin) were determined by quantifying WB results using Image J.

SHIP-1 [3] = details: API-treated OPC mice, previous findings (ref 12); cited from earlier work

Compound: O=c1cc(-c2ccc(O)cc2)oc2cc(O)cc(O)c12 [API, 40,5,7-Trihydroxyflavone, 5,7-Dihydroxy-2-(4-hydroxyphenyl)-4-benzopyrone]
- SHIP-1 gene expression in tumor (SHIP-1 [1]): increased
- SHIP-1 protein expression in tumor (SHIP-1 [1]): increased
- SHIP-1 gene expression in BM (SHIP-1 [2]): significantly increased
- SHIP-1 protein expression in BM (SHIP-1 [2]): significantly increased
- iNOS protein expression in tumor (iNOS): significant increase
- SHIP-1 gene expression in pancreatic tumor (SHIP-1 [3]): increased
- SHIP-1 protein expression in pancreatic tumor (SHIP-1 [3]): increased
